These results are taken from patent publication US10208047B2, “Tertiary alcohol imidazopyrazine BTK inhibitors” (Merck Sharp & Dohme Corp., priority 2014, dated 2019).

One may read the IC50 as the concentration that inhibits the measured activity by half.

BTK enzyme (recombinant full-length BTK, hBTK), sequence (Q06187 whole entry): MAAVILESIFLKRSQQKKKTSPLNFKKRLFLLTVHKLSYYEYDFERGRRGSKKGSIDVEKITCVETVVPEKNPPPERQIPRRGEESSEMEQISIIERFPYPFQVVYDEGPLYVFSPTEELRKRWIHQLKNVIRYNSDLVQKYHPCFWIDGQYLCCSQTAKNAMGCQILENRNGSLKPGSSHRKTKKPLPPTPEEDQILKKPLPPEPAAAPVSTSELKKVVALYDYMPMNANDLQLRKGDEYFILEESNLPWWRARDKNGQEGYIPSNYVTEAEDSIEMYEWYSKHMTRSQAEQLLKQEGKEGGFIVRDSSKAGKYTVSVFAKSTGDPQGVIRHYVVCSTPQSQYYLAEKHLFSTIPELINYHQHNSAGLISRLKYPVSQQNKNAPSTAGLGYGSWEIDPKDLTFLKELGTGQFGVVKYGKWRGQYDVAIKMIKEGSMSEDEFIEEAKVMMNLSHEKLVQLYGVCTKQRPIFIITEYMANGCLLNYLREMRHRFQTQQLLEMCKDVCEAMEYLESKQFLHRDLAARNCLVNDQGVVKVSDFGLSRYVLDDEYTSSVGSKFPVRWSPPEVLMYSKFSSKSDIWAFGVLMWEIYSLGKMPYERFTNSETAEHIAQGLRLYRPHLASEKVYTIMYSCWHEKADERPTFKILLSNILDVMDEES

The target in this assay is BTK enzyme (recombinant full-length BTK, hBTK) (Homo sapiens (Human), UniProt Q06187). Nature of the assay: Btk enzyme activity assay, LANCE TR-FRET. The format is biochemical. As to conditions: 50 pM hBTK, 2 μM biotin-A5-peptide, 25 μM ATP, 60 minute compound & enzyme incubation, compound range 1 μM to 0.017 nM, read-out: BTK binding IC50. Here is the method:
Btk Enzyme Activity Assay Methods
BTK enzymatic activity was determined with the LANCE (Lanthanide Chelate Excite) TR-FRET (Time-resolved fluorescence resonance energy transfer) assay. In this assay, the potency (IC50) of each compound was determined from an eleven point (1:3 serial dilution; final compound concentration range in assay from 1 μM to 0.017 nM) titration curve using the following outlined procedure. To each well of a black non-binding surface Corning 384-well microplate (Corning Catalog #3820), 5 nL of compound (2000 fold dilution in final assay volume of 10 μL) was dispensed, followed by the addition of 7.5 μL of 1× kinase buffer (50 mM Hepes 7.5, 10 mM MgCl2, 0.01% Brij-35, 1 mM EGTA, 0.05% BSA & 1 mM DTT) containing 5.09 pg/μL (66.67 pM) of BTK enzyme (recombinant protein from baculovirus-transfected Sf9 cells: full-length BTK, 6HIS-tag cleaved). Following a 60 minute compound & enzyme incubation, each reaction was initiated by the addition of 2.5 μL 1× kinase buffer containing 8 μM biotinylated “A5” peptide (Biotin-EQEDEPEGDYFEWLE-NH2) (SEQ.ID.NO.: 1), and 100 μM ATP. The final reaction in each well of 10 μL consists of 50 pM hBTK, 2 μM biotin-A5-peptide, and 25 μM ATP. Phosphorylation reactions were allowed to proceed for 120 minutes. Reactions were immediately quenched by the addition of 20 uL of 1× quench buffer (15 mM EDTA, 25 mM Hepes 7.3, and 0.1% Triton X-100) containing detection reagents (0.626 nM of LANCE-Eu-W1024-anti-phosphoTyrosine antibody, PerkinElmer and 86.8 nM of Streptavidin-conjugated Dylight 650, Dyomics/ThermoFisher Scientific). After 60 minutes incubation with detection reagents, reaction plates were read on a PerkinElmer EnVision plate reader using standard TR-FRET protocol. Briefly, excitation of donor molecules (Eu-chelate:anti-phospho-antibody) with a laser light source at 337 nm produces energy that can be transferred to Dylight-650 acceptor molecules if this donor:acceptor pair is within close proximity. Fluorescence intensity at both 665 nm (acceptor) and 615 nm (donor) are measured and a TR-FRET ratio calculated for each well (acceptor intensity/donor intensity). IC50 values were determined by 4 parameter robust fit of TR-FRET ratio values vs. (Log10) compound concentrations.
(Time-resolved FRET reads energy transfer from a long-lived donor to a nearby acceptor.)
On to `C[C@@](O)(c1ccc(-c2nc(C34CCC(C(=O)O)(CC3)C4)n3ccnc(N)c23)cc1)c1cccc(C(F)(F)F)c1` [Example 8, 4-[8-amino-1-(4-{(1R)-1-hydroxy-1-[3-(trifluoromethyl)phenyl]ethyl}phenyl)imidazo[1,5-a]pyrazin-3-yl]bicyclo[2.2.1]heptane-1-carboxylic acid], for which the IC50 was 0.0011 µM.
Turning to `CC(C)[C@@H]1CC[C@H](c2nc(-c3ccc([C@@](C)(O)c4cccc(C(F)(F)F)c4)cc3)c3c(N)nccn23)C[C@@H]1C(=O)O` [Example 23, (1S,2S,5S)-5-[8-amino-1-(4-{(1R)-1-hydroxy-1-[3-(trifluoromethyl)phenyl]ethyl}phenyl)imidazo[1,5-a]pyrazin-3-yl]-2-(1-methylethyl)cyclohexanecarboxylic acid], the IC50 came to 0.0287 µM.
In the case of `CC1(C(=O)O)CCC(C)(c2nc(-c3ccc([C@@](C)(O)c4cccc(C(F)(F)F)c4)cc3)c3c(N)nccn23)CC1` (stereo partly drawn) [Example 1, (R)-4-(8-amino-1-(4-(1-hydroxy-1-(3-(trifluoromethyl)phenyl)ethyl)phenyl)imidazo[1,5-a]pyrazin-3-yl)-1,4-dimethylcyclohexanecarboxylic acid], the IC50 worked out at 0.0394 µM.
As for `CC1(C)[C@H](c2nc(-c3ccc([C@@](C)(O)c4cccc(C(F)F)c4)cc3)c3c(N)nccn23)CC[C@]1(C)C(=O)O` [Example 27, (1S,3R)-3-[8-amino-1-(4-{(1R)-1-[3-(difluoromethyl)phenyl]-1-hydroxyethyl}phenyl)imidazo[1,5-a]pyrazin-3-yl]-1,2,2-trimethylcyclopentanecarboxylic acid], the IC50 was found to be 0.00078 µM.
For the compound `C[C@]1(C(=O)O)CC[C@](C)(c2nc(-c3ccc([C@@](C)(O)c4cccc(C(F)(F)F)c4)cc3)c3c(N)nccn23)C1` [Example 16, (1S,3S)-3-[8-amino-1-(4-{(1R)-1-hydroxy-1-[3-(trifluoromethyl)phenyl]ethyl}phenyl)imidazo[1,5-a]pyrazin-3-yl]-1,3-dimethylcyclopentanecarboxylic acid], the half-inhibitory concentration (IC50) came out at 0.0076 µM.
On to `C[C@@](O)(c1ccc(-c2nc(C3(C(=O)O)CC3)n3ccnc(N)c23)cc1)c1cccc(C(F)(F)F)c1` [Example 7, 1-[8-amino-1-(4-{(1R)-1-hydroxy-1-[3-(trifluoromethyl)phenyl]ethyl}phenyl)imidazo[1,5-a]pyrazin-3-yl]cyclopropanecarboxylic acid], for which the half-inhibitory concentration (IC50) was found to be 0.614 µM.
Turning to `CC(C)[C@@]1(C(=O)O)CC[C@H](c2nc(-c3ccc([C@@](C)(O)c4cccc(C(F)F)c4)cc3)c3c(N)ncc(Cl)n23)C1` [Example 30, (1R,3S)-3-[8-amino-5-chloro-1-(4-{(1R)-1-[3-(difluoromethyl)phenyl]-1-hydroxyethyl}phenyl)imidazo[1,5-a]pyrazin-3-yl]-1-(1-methylethyl)cyclopentanecarboxylic acid], the IC50 stood at 0.0323 µM.
Then `CC(C)[C@]1(C(=O)O)CCC[C@@H](c2nc(-c3ccc([C@](C)(O)c4cccc(C(F)(F)F)c4)cc3)c3c(N)nccn23)C1` [Example 14, (1S,3R)-3-[8-amino-1-(4-{(1S)-1-hydroxy-1-[3-(trifluoromethyl)phenyl]ethyl}phenyl)imidazo[1,5-a]pyrazin-3-yl]-1-(1-methylethyl)cyclohexanecarboxylic acid], with 1 µM; and `C[C@@]1(C(=O)O)CC[C@](C)(c2nc(-c3ccc([C@@](C)(O)c4cccc(C(F)(F)F)c4)cc3)c3c(N)nccn23)C1` [Example 17, (1R,3S)-3-[8-amino-1-(4-{(1R)-1-hydroxy-1-[3-(trifluoromethyl)phenyl]ethyl}phenyl)imidazo[1,5-a]pyrazin-3-yl]-1,3-dimethylcyclopentanecarboxylic acid], with 0.0551 µM.
Turning to `CC1(C)[C@H](c2nc(-c3ccc([C@@](C)(O)c4cccc(C(F)(F)F)c4)cc3)c3c(N)ncc(F)n23)CC[C@]1(C)C(=O)O` [Example 24, (1S,3R)-3-[8-amino-5-fluoro-1-(4-{(1R)-1-hydroxy-1-[3-(trifluoromethyl)phenyl]ethyl}phenyl)imidazo[1,5-a]pyrazin-3-yl]-1,2,2-trimethylcyclopentanecarboxylic acid], the IC50 stood at 0.0063 µM.
As for `CCOc1cc(C(C)(O)c2cccc(C)c2)ccc1-c1nc(C23CCC(C(=O)O)(CC2)CC3)n2ccnc(N)c12` (stereo not shown) [Example 20, 4-(8-amino-1-{2-ethoxy-4-[1-hydroxy-1-(3-methylphenyl)ethyl]phenyl}imidazo[1,5-a]pyrazin-3-yl)bicyclo[2.2.2]octane-1-carboxylic acid], the IC50 was found to be 0.136 µM.
With `CCOc1cc(C(C)(O)c2cccc(C)c2)ccc1-c1nc(C23CCC(C(=O)O)(CC2)CC3)n2ccnc(N)c12` (stereo not shown) [Example 19, 4-(8-amino-1-{2-ethoxy-4-[1-hydroxy-1-(3-methylphenyl)ethyl]phenyl}imidazo[1,5-a]pyrazin-3-yl)bicyclo[2.2.2]octane-1-carboxylic acid], the IC50 is 0.0041 µM.
Then `CC(C)[C@]1(C(=O)O)CC[C@H](c2nc(-c3ccc([C@@](C)(O)c4cccc(C(F)F)c4)cc3)c3c(N)ncc(Cl)n23)C1` [Example 31, (1S,3S)-3-[8-amino-5-chloro-1-(4-{(1R)-1-[3-(difluoromethyl)phenyl]-1-hydroxyethyl}phenyl)imidazo[1,5-a]pyrazin-3-yl]-1-(1-methylethyl)cyclopentanecarboxylic acid], with 0.133 µM; and `CC1(C(=O)O)CCC(C)(c2nc(-c3ccc([C@@](C)(O)c4cccc(C(F)F)c4)cc3)c3c(N)nccn23)CC1` (stereo partly drawn) [Example 33, 4-[8-amino-1-(4-{(1R)-1-[3-(difluoromethyl)phenyl]-1-hydroxyethyl}phenyl)imidazo[1,5-a]pyrazin-3-yl]-1,4-dimethylcyclohexanecarboxylic acid], with 0.0114 µM; and `CC(C)[C@H]1CC[C@@H](c2nc(-c3ccc([C@@](C)(O)c4cccc(C(F)(F)F)c4)cc3)c3c(N)nccn23)C[C@H]1C(=O)O` [Example 21, (1R,2R,5R)-5-[8-amino-1-(4-{(1R)-1-hydroxy-1-[3-(trifluoromethyl)phenyl]ethyl}phenyl)imidazo[1,5-a]pyrazin-3-yl]-2-(1-methylethyl)cyclohexanecarboxylic acid], with 0.0561 µM.
Take `CC(C)[C@]1(C(=O)O)CC[C@@H](c2nc(-c3ccc([C@@](C)(O)c4cccc(C(F)F)c4)cc3)c3c(N)ncc(Cl)n23)C1` [Example 29, (1S,3R)-3-[8-amino-5-chloro-1-(4-{(1R)-1-[3-(difluoromethyl)phenyl]-1-hydroxyethyl}phenyl)imidazo[1,5-a]pyrazin-3-yl]-1-(1-methylethyl)cyclopentanecarboxylic acid]: the IC50 stood at 0.0028 µM.
